In the CheMixHub viscosity set:
Several values for one entry are separate records, joined by “and”; a condition that tells them apart may be missing. Equal entries are not always repeated.

Test: xn = mol fraction of the nth substance listed

CC(C)CO + CS(C)=O
viscosity [mPa·s], 101.3 kPa
Settings	x2 = 0.0944	x2 = 0.1917	x2 = 0.289	x2 = 0.3884	x2 = 0.4863	x2 = 0.5874	x2 = 0.6887	x2 = 0.7913	x2 = 0.8951
298.15 K	2.785	2.366	2.056	1.934	1.879	1.853	1.858	1.891	1.918
303.15 K	2.424	2.071	1.847	1.754	1.703	–	1.686	1.693	1.733

O=C1OCCO1 + CS(C)=O
313.15 K, 101.33 kPa
Settings	viscosity [mPa·s]
x2 = 0.0721	1.862
x2 = 0.1744	1.786
x2 = 0.2849	1.709
x2 = 0.3698	1.656
x2 = 0.469	1.611
x2 = 0.5668	1.571
x2 = 0.6744	1.538
x2 = 0.7969	1.515
x2 = 0.8782	1.51
x2 = 0.9732	1.511

Cc1ccccc1O + C[N+](C)(C)CCO.[Cl-]
298.15 K, 101.33 kPa
Settings	viscosity
x1 = 0.7	137.1 mPa·s
x1 = 0.8	73.25 mPa·s and 56.18 mPa·s and 47.22 mPa·s
x1 = 0.9	38.19 mPa·s

O=C(O)C(=O)O + C[N+](C)(C)CCO.[Cl-]
viscosity [mPa·s], x2 = 0.5
Settings	293.15 K	293.2 K	298.15 K	303.2 K	308.15 K	313.2 K	318.15 K
100 kPa	15680	–	8953	–	3332	–	1421
101.3 kPa	–	7595	–	4359	–	2174	–

O=C(O)CO + C[N+](C)(C)CCO.[Cl-]
100 kPa, x2 = 0.5
Settings	viscosity [mPa·s]
293.15 K	779.4
298.15 K	547.9
303.15 K	394.8
308.15 K	290.6
313.15 K	218.6
318.15 K	167
323.15 K	130.1

CC(C)CO + Cc1ccc(C)cc1
308.15 K, 101 kPa
Settings	viscosity [mPa·s]
x1 = 0.0452	0.549
x1 = 0.1043	0.562
x1 = 0.1908	0.595
x1 = 0.3019	0.649
x1 = 0.3823	0.697
x1 = 0.4859	0.775
x1 = 0.6097	0.969
x1 = 0.7046	1.218
x1 = 0.8071	1.487
x1 = 0.8948	1.856
x1 = 0.9585	2.247

CCCCCOC(C)=O + Cc1ccc(O)cc1
Settings	viscosity [mPa·s]
298.15 K, 101 kPa, x2 = 0.5	1.169

Cc1ccccc1O + Cc1ccc(O)cc1
viscosity [mPa·s]
Settings	298.15 K	313.15 K	323.15 K
101 kPa, x1 = 0.1547	13.27	–	–
101 kPa, x1 = 0.2999	12	–	–
101 kPa, x1 = 0.3525	11.63	–	–
101 kPa, x1 = 0.4233	11.03	–	–
101 kPa, x1 = 0.5256	10.3	–	–
101 kPa, x1 = 0.6304	9.612	–	–
101 kPa, x1 = 0.7573	8.854	–	–
101 kPa, x1 = 0.875	8.209	–	–
101.3 kPa, x1 = 0.1	–	6.38	4.318
101.3 kPa, x1 = 0.2	–	6.086	4.147
101.3 kPa, x1 = 0.3	–	5.766	3.929
101.3 kPa, x1 = 0.4	–	5.425	3.727
101.3 kPa, x1 = 0.5	–	5.125	3.555
101.3 kPa, x1 = 0.6	–	4.847	3.401
101.3 kPa, x1 = 0.7	–	4.616	3.235
101.3 kPa, x1 = 0.8	–	4.435	3.112
101.3 kPa, x1 = 0.9	–	4.3	3.047
